Values joined by “and” are separate entries in the source; they are usually repeats but may differ in a detail not shown here. Identical values can stand only once.
System: influenza viruses
Parameters: species or system human (pediatric influenza patients)
Conditions: human, in vivo

## CCOC(=O)C1=C[C@@H](OC(CC)CC)[C@H](NC(C)=O)[C@@H](N)C1 [oseltamivir]
  Virus isolation rate from specimens: 68% and 69%

## CC(=O)N[C@H]1[C@H]([C@H](O)[C@H](O)CO)OC(C(=O)O)=C[C@@H]1N=C(N)N [zanamivir]
  Virus isolation rate from specimens: 50% and 39%
